In patent publication US7279479B2, “Method for the treatment of heart failure” (Orion Corporation, priority 2001, dated 2007):

Tests used:
[1] = system: guinea-pigs intoxicated with diltiazem; assay: Survival of anesthetized guinea-pigs intoxicated with diltiazem (acute heart failure); type: in vivo, guinea-pig (Dunkin Hartley); details: diltiazem 4.5 mg/kg i.v.
Method: At zero time, the intoxication was started with an intravenous bolus injection of diltiazem and immediately continued with a 4-min infusion. The total dose of diltiazem was 4.5 mg/kg. Control animals were treated with saline. All treatments were started one minute after the end of the diltiazem infusion. *p<0.05, **p<0.01, ***p<0.001 vs. control (Kaplan-Meier survival analysis followed by the logrank test).
(§1) 120 spontaneously breathing guinea-pigs (Dunkin Hartley, weighing 470±5 grams, mean±SEM) were anesthetised with isoflurane. The left ventricular and brachial arterial pressures were measured. The carotid artery was surgically exposed in order to introduce a pressure transducer into the left ventricle. A fluid-filled polyethylene cannula was inserted into the brachial artery and connected to another pressure transducer for recording of arterial pressure. The pressure signals were amplified, digitized and sampled.

[2] = system: guinea-pigs intoxicated with verapamil; assay: Survival of anesthetized guinea-pigs intoxicated with verapamil (acute heart failure); type: in vivo, guinea-pig (Dunkin Hartley); details: verapamil 2.0 mg/kg i.v.; 60 min follow-up; low doses: levosimendan 8.4 μg/kg bolus + 0.14 μg/kg/min, CaCl2 10 mg/kg bolus + 0.5 mg/kg/min; vs saline control
Method: At zero time, the intoxication was started with an intravenous bolus injection of verapamil and immediately continued with a 4-min infusion. The total dose of verapamil was 2.0 mg/kg. Control animals were treated with saline.
as §1

SMILES | effect on survival (in words) ([1]; 60 min follow-up, low doses: levosimendan 8.4 μg/kg bolus + 0.14 μg/kg/min, CaCl2 10 mg/kg bolus + 0.5 mg/kg/min, vs saline control) | effect on survival (in words) [2] | survival rate ([1]; 60 minutes after intoxication began, levosimendan 8.4 μg/kg bolus + 0.14 μg/kg/min, control 13%)
[Ca+2].[Cl-].[Cl-] [calcium chloride] | did not affect the survival rate | did not affect the survival rate | –
CC1CC(=O)NN=C1c1ccc(NN=C(C#N)C#N)cc1 (single isomer, unassigned; (-)) [levosimendan, (−)-enantiomer of [[4-(1,4,5,6-tetrahydro-4-methyl-6-oxo-3-pyridazinyl)phenyl]hydrazono]propanedinitrile] | – | did not improve the survival | 63%
